From US20240343704A1, “HALO-SUBSTITUTED AMINO PYRIDINE COMPOUNDS AS INHIBITORS OF THE HAEMATOPOIETIC PROGENITOR KINASE 1 (HPK1)” (priority 2021, published 2024)

Assays:
Lck (h) = Lck (h) (Homo sapiens, UniProt P06239); experiment: Lck Human  Kinase Enzymatic Radiometric Assay; type: biochemical; conditions: read-out: Lck IC50 nM Range*
Method in brief: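 Substrate 33P-incorporation measured by scintillation counting after spotting on P30 filtermat and phosphoric acid washes. Human Lck reacted 40 min at RT in 50 mM Tris pH 7.5 with 10 mM MgAcetate, [gamma-33P]-ATP, 250 uM Cdc2 peptide, 0.1 mM EGTA and 0.1 mM Na3VO4.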

[1] = molecular target: T1, Recombinant (1-346) HPK1 (h) (Homo sapiens, UniProt Q92918); experiment: HPK1 Human STE Kinase Enzymatic Radiometric Assay; type: biochemical; conditions: read-out: HPK1 IC50 nM Range*
T1 construct: Recombinant (1-346) HPK1 (h) is incubated with 8 mM MOPS pH 7.0
T1 sequence (Q92918 1-346): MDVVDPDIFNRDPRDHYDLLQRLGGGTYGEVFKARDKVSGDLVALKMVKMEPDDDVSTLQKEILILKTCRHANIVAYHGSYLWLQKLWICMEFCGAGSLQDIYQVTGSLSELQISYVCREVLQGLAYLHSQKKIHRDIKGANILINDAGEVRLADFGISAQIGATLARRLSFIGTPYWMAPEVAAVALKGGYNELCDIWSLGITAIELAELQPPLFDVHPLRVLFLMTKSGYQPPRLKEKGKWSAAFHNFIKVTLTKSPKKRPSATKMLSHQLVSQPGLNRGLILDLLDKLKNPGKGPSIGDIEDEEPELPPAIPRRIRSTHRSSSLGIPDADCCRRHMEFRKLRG
Description: A stock solution of 10 mM of test compound is prepared in DMSO. The compound plate was prepared by 3-fold and 9-point serial dilutions. […] The reaction is initiated by The addition of the Mg/ATP mix. After incubation for 40 minutes at RT, the reaction is stopped by the addition of phosphoric acid to a concentration of 0.5%.

Lck (h), sequence (P06239 whole entry): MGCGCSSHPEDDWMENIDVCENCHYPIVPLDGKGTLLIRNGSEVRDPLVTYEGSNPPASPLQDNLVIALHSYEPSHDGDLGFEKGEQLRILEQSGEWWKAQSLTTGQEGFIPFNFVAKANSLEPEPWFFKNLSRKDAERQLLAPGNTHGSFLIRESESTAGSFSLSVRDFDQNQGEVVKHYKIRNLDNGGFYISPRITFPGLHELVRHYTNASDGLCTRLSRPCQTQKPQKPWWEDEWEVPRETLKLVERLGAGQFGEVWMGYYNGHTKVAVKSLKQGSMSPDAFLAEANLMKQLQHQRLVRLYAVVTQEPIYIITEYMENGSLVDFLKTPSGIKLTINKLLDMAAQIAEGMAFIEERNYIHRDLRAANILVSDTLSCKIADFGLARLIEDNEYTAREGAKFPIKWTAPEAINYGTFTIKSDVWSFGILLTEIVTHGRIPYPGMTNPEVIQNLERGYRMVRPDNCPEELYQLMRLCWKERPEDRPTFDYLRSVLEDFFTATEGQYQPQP

| Structure (SMILES) | IC50 (Lck (h)) [nM] | IC50 [1] [nM] |
| --- | --- | --- |
| CCN(C)Cc1nc(-c2cc(-c3ccc4c(c3)CCNC4=O)c(N)nc2F)ccc1N1CCOCC1 [I-580, 6-(6′-amino-6-((ethyl(methyl)amino)methyl)-2′-fluoro-5-morpholino-[2,3′-bipyridin]-5′-yl)-3,4-dihydroisoquinolin-1(2H)-one] | > 1000 | 0.1 to 10 |
| CC(=O)N1CCN(c2ccc(-c3cc(-c4ccc5c(c4)CCNC5=O)c(N)nc3F)nc2)CC1 [I-591, 6-(5-(4-acetylpiperazin-1-yl)-6′-amino-2′-fluoro-[2,3′-bipyridin]-5′-yl)-3,4-dihydroisoquinolin-1(2H)-one] | > 1000 | 0.1 to 10 |
| Nc1nc(F)c(-c2ccc(N3CCOCC3)c(CN3CCC3)c2F)cc1-c1ccc2c(c1)CCNC2=O [I-609, 6-(2-amino-5-(3-(azetidin-1-ylmethyl)-2-fluoro-4-morpholinophenyl)-6-fluoropyridin-3-yl)-3,4-dihydroisoquinolin-1(2H)-one] | > 1000 | 11 to 100 |
